Test results from patent US12441704B2, “Compounds active towards nuclear receptors” (NUEVOLUTION A/S, priority 2019, dated 2025).
Where two headings read alike, the source gives them in different places.

What was measured:
[1] = tested on: IL-17A secretion in activated PBMCs; assay: IL-17A secretion in activated PBMCs; type: cell-based, human; settings: human PBMCs stimulated with CD3/CD28 Dynabeads for 48 h, absolute IC50
Protocol: Heparin-treated whole blood from healthy human volunteers was supplied from Hospital de Sant Pau (Barcelona) under the approval of the local ethical review board for human studies (Hospital de Sant Pau, Barcelona, Spain). Human peripheral blood mononuclear cells (PBMCs) were isolated from healthy human volunteers by density gradient centrifugation using the Ficoll-Paque (GE Healthcare). […] Cells were seeded in 384-well plate (DiscoverX), at 40,000 cells per well and cultured 2 h at 37° C. and 5% CO2.
Dose-response curves with compounds were prepared using a 5-fold serial dilution (10 concentrations) in 100% DMSO and further diluted 100-fold in culture medium. Compound solutions (5 μL) were added to the plate containing cells (final DMSO concentration of 0.1%) and incubated for 30 min. Then, cells were stimulated with CD3/CD28 Dynabeads (ThermoFisher, at a bead-to-cell ratio of 1:1) for 48 h at 37° C. and 5% CO2.
IL-17A levels in supernatant were determined by immunoassay using hIL17A QBeads (Intellicyt) and by fluorescence analysis in iQue flow cytometer following the manufacturer's instructions. Inhibition of IL-17A secretion was calculated using the following formula: inhibition=100*[1−[(x−mean basal condition)/(mean top condition−mean basal condition)]]. Activated DMSO-treated cells were used as top condition and activated GNE09461 (10 μM)-treated cells as basal condition.

[2] = target: T1, RORγ ligand-binding domain fused to Gal4 (Homo sapiens, UniProt P51449); assay: RORγ Reporter Assay (Gal4); type: cell-based
T1 construct: Gal4 (galactose-responsive transcription factor); expressed in transfected cells; host or cells: HEK293
T1 sequence (P51449 269-508 limits assumed): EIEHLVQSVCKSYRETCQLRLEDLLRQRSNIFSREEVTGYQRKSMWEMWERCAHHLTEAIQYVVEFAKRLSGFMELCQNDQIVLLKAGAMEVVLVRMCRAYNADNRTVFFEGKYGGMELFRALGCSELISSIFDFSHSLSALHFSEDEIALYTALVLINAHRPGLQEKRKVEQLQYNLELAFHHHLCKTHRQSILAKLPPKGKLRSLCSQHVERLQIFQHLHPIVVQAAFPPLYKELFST
Protocol: The HEK293 cell line is co-transfected transiently with two plasmids, one with the RORγ ligand-binding domain fused to galactose-responsive transcription factor (Gal4), and the other with the luciferase reporter gene and Gal binding sites (UAS). This construction allows to determine the RORγ activity in a cellular system through the measurement of luminescence.
A suspension of RORγ reporter cells was dispensed into plates and cultured 2 h at 37° C. and 5% CO2. Media formulation consisted in DMEM/F-12 medium (Gibco) supplemented with 10% heat inactivated FBS (Sigma-Aldrich), non-essential aminoacids (Sigma-Aldrich), 2 mM Glutamax (Gibco) and 100 U/mL penicillin (Sigma-Aldrich). Dose-response curves with compounds were prepared in 100% DMSO and further diluted 100-fold in culture medium. Compound solutions were added to the plate containing cells (final DMSO concentration of 0.1%) and incubated for 24 h at 37° C. and 5% CO2. Luciferase detection reagent was added to each well, and relative light units (RLUs) were quantified from each assay well using a plate reading luminometer.
Values of average RLU±S.D. were computed for all treatment sets, followed by the calculations of percent-reduction of RORγ activity in response to respective test compound. The following formula was used: activity=100*[1−[x test compound/average vehicle] where the theoretical minimum reduction (0% reduction).

[3] = HEK293 cells co-transfected with RORγ LBD-Gal4 and luciferase reporter, 24 h incubation, absolute EC50, read-out: EC50

SMILES | EC50 [2, 3] [nM] | further results
[2H]C([2H])([2H])N(Cc1ccc(C(F)(F)F)cc1)c1ncnc(NC[C@@H]2CCN(CC(N)=O)C[C@H]2O)c1F (racemic) [Example A7-60, rac-2-((3R,4R)-4-(((5-fluoro-6-((methyl-d3)(4-(trifluoromethyl)benzyl)amino)pyrimidin-4-yl)amino)methyl)-3-hydroxypiperidin-1-yl)acetamide] |  | IC50 ([1]; Homo sapiens, PBMC, 48 h): 87 nM
NC(=O)CN1CC[C@@H](CNc2ncnc(N(Cc3ccc(-n4cccn4)cc3)C3CC3)c2F)[C@H](O)C1 (racemic) [Example A7-86, rac-2-((3R,4R)-4-(((6-((4-(1H-pyrazol-1-yl)benzyl)(cyclopropyl)amino)-5-fluoropyrimidin-4-yl)amino)methyl)-3-hydroxypiperidin-1-yl)acetamide] |  | IC50 ([1]; Homo sapiens, PBMC, 48 h): 55 nM
CCN(Cc1ccc(C(F)(F)F)cc1)c1ncnc(NC[C@@H]2CCN(C(C)(C)C(N)=O)C[C@H]2O)c1F (relative stereo) [Example A7-57, rel-2-((3R,4R)-4-(((6-(ethyl(4-(trifluoromethyl)benzyl)amino)-5-fluoropyrimidin-4-yl)amino)methyl)-3-hydroxypiperidin-1-yl)-2-methylpropanamide] |  | IC50 ([1]; Homo sapiens, PBMC, 48 h): 39 nM
Cn1cc(-c2ccc(CN(c3ncnc(NC[C@]4(O)CCN(CC(N)=O)C[C@H]4O)c3F)C3CC3)c(F)c2)cn1 (single isomer, unassigned) [Example D5-05-1] |  | IC50 [1]: 23 nM
NC(=O)CN1CC[C@@H](CNc2ncnc(N(Cc3ccc(C(F)(F)F)cc3)C3CC3)c2F)[C@H](O)C1 (stereo in doubt) [Example A7-01, rac-2-((3R,4R)-4-(((6-(Cyclopropyl(4-(trifluoromethyl)benzyl)amino)-5-fluoropyrimidin-4-yl)amino)methyl)-3-hydroxypiperidin-1-yl)acetamide] |  | IC50 ([1]; Homo sapiens, PBMC, 48 h): 8.7 nM
CCN(Cc1ccc(C(F)(F)F)cc1F)c1ncnc(NC[C@@H]2CCN(CC(N)=O)C[C@H]2O)c1F (stereo in doubt) [Example A7-26, rac-2-((3R,4R)-4-(((6-(ethyl(2-fluoro-4-(trifluoromethyl)benzyl)amino)-5-fluoropyrimidin-4-yl)amino)methyl)-3-hydroxypiperidin-1-yl)acetamide] | 17 | 
COC(=O)C1(CNc2ncnc(N(Cc3ccc(C(F)(F)F)cc3)C3CC3)c2F)CCN(CC(N)=O)CC1 [Example A7-08, methyl 1-(2-amino-2-oxoethyl)-4-(((6-(cyclopropyl(4-(trifluoromethyl)benzyl)amino)-5-fluoropyrimidin-4-yl)amino)methyl)piperidine-4-carboxylate] | 15 | 
NC(=O)CN1CCC(F)(CNc2ncnc(N(Cc3ccc4c(c3)OCC(=O)N4)C3CC3)c2F)CC1 [Example A7-12] | 150 | 
Cn1c(=O)oc2cc(CN(c3ncnc(NCC4(F)CCN(CC(N)=O)CC4)c3F)C3CC3)ccc21 [Example A7-13] | 230 | 
CC(c1ccc(C(F)(F)F)cc1)N(c1ncnc(NCC2CCN(CC(N)=O)CC2)c1F)C1CC1 (centres unmarked) [Example A7-34, 2-(4-(((6-(cyclopropyl(1-(4-(trifluoromethyl)phenyl)ethyl)amino)-5-fluoropyrimidin-4-yl)amino)methyl)piperidin-1-yl)acetamide] | 90 | EC50 ([2]; compounds of the present disclosure, value from Table 2 herein, read-out: Gal4 assay EC50): < 100 nM
NC(=O)CN1CCC(CNc2ncnc(N(Cc3ccc(C(F)(F)F)cn3)C3CC3)c2F)CC1 [Example A7-35, 2-(4-(((6-(cyclopropyl((5-(trifluoromethyl)pyridin-2-yl)methyl)amino)-5-fluoropyrimidin-4-yl)amino)methyl)piperidin-1-yl)acetamide] | 310 | 
N#Cc1cccc(CN(c2ncnc(NCC3CCN(CC(N)=O)CC3)c2F)C2CC2)c1 [Example A7-36, 2-(4-(((6-((3-cyanobenzyl)(cyclopropyl)amino)-5-fluoropyrimidin-4-yl)amino)methyl)piperidin-1-yl)acetamide] | 860 | 
NC(=O)CN1CCC(CNc2ncnc(N(Cc3ccc4c(c3)OCC(=O)N4)C3CC3)c2F)CC1 [Example A7-37] | 670 | 
NC(=O)CN1CCC(CNc2ncnc(N(Cc3cccc(-n4cncn4)c3)C3CC3)c2F)CC1 [Example A7-38, 2-(4-(((6-((3-(1H-1,2,4-triazol-1-yl)benzyl)(cyclopropyl)amino)-5-fluoropyrimidin-4-yl)amino)methyl)piperidin-1-yl)acetamide] | 590 | 
NC(=O)CN1CCC(CNc2ncnc(N(Cc3ccc(C(F)(F)F)cc3)C3CC3)c2F)CC1 [Example A7-39, 2-(4-(((6-(cyclopropyl(4-(trifluoromethyl)benzyl)amino)-5-fluoropyrimidin-4-yl)amino)methyl)piperidin-1-yl)acetamide] | 37 | 
Cc1cc(CN(c2ncnc(NCC3CCN(CC(N)=O)CC3)c2F)C2CC2)c(C)cc1Cl [Example A7-46, 2-(4-(((6-((4-chloro-2,5-dimethylbenzyl)(cyclopropyl)amino)-5-fluoropyrimidin-4-yl)amino)methyl)piperidin-1-yl)acetamide] | > 1000 | 
Cc1ccc(C)c(CN(c2ncnc(NCC3CCN(CC(N)=O)CC3)c2F)C2CC2)c1 [Example A7-47, 2-(4-(((6-(cyclopropyl(2,5-dimethylbenzyl)amino)-5-fluoropyrimidin-4-yl)amino)methyl)piperidin-1-yl)acetamide] | > 1000 | 
CC1CC(CNc2ncnc(N(Cc3ccc(C(F)(F)F)cc3)C3CC3)c2F)CCN1CC(N)=O (centres unmarked) [Example A7-48] | 17 | 
Cc1cc(CN(c2ncnc(NCC3CCN(CC(N)=O)CC3)c2F)C2CC2)cc(C)c1Cl [Example A7-53, 2-(4-(((6-((4-chloro-3,5-dimethylbenzyl)(cyclopropyl)amino)-5-fluoropyrimidin-4-yl)amino)methyl)piperidin-1-yl)acetamide] | > 1000 | 
NC(=O)C(CO)N1CCC(CNc2ncnc(N(Cc3ccc(C(F)(F)F)cc3)C3CC3)c2F)CC1 (centres unmarked) [Example A7-64, 2-(4-(((6-(cyclopropyl(4-(trifluoromethyl)benzyl)amino)-5-fluoropyrimidin-4-yl)amino)methyl)piperidin-1-yl)-3-hydroxypropanamide] | 73 | 
NC(=O)CN1CCC(CNc2ncnc(N(Cc3ccc(C(F)(F)F)cc3)C3CC3)c2F)(c2nc[nH]n2)CC1 [Example A7-80, 2-(4-(((6-(Cyclopropyl(4-(trifluoromethyl)benzyl)amino)-5-fluoropyrimidin-4-yl)amino)methyl)-4-(1H-1,2,4-triazol-3-yl)piperidin-1-yl)acetamide] | 53 | 
Cn1cnnc1C1(CNc2ncnc(N(Cc3ccc(C(F)(F)F)cc3)C3CC3)c2F)CCN(CC(N)=O)CC1 [Example A7-83, 2-(4-(((6-(Cyclopropyl(4-(trifluoromethyl)benzyl)amino)-5-fluoropyrimidin-4-yl)amino)methyl)-4-(4-methyl-4H-1,2,4-triazol-3-yl)piperidin-1-yl)acetamide] | > 1000 | 
NC(=O)CN1CCC(CNc2ncnc(N(Cc3ccc(C(F)(F)F)cc3)C3CC3)c2F)(c2ncc[nH]2)CC1 [Example A7-84, 2-(4-(((6-(Cyclopropyl(4-(trifluoromethyl)benzyl)amino)-5-fluoropyrimidin-4-yl)amino)methyl)-4-(1H-imidazol-2-yl)piperidin-1-yl)acetamide] | 301 | 
NC(=O)CN1CCC(C(CO)Nc2ncnc(N(Cc3ccc(C(F)(F)F)cc3)C3CC3)c2F)CC1 (centres unmarked) [Example A7-87, 2-(4-(1-((6-(cyclopropyl(4-(trifluoromethyl)benzyl)amino)-5-fluoropyrimidin-4-yl)amino)-2-hydroxyethyl)piperidin-1-yl)acetamide] | 181 | 
NC(=O)CN1CCC(N)(CNc2ncnc(N(Cc3ccc(C(F)(F)F)cc3)C3CC3)c2F)CC1 [Example E6-1, 2-(4-Amino-4-(((6-(cyclopropyl(4-(trifluoromethyl)benzyl)amino)-5-fluoropyrimidin-4-yl)amino)methyl)piperidin-1-yl)acetamide] | 150 | 
